“And” between values parts separate entries of the source, which are not always exact repeats. Equal values may be shown once. Inconclusive results and toxic doses are left out.
Test system: BDF1 mice, P388 leukemia ip, median survival T/C
Assay: NCI In Vivo Anticancer Drug Screen. Data for tumor model P388 Leukemia (intraperitoneal) in B6D2F1 (BDF1) mice
Conditions: endpoint: median survival time, higher = longer survival
Method in brief: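 Antitumour effect was judged in vivo: survival in drug-treated mice, normalised to that of vehicle-dosed controls, gives the reported T/C.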

[1] = dose: 50.0 mg/kg/injection, schedule: Q01DX009 (ip), vehicle: saline with Tween-80
[2] = dose: 100.0 mg/kg/injection, schedule: Q01DX009 (ip), vehicle: saline with Tween-80
[3] = dose: 100.0 mg/kg/injection, schedule: Q01DX009 (ip), vehicle: saline
[4] = dose: 25.0 mg/kg/injection, schedule: Q01DX009 (ip), vehicle: Klucel (hydroxypropylcellulose) (HPC)
[5] = dose: 200.0 mg/kg/injection, schedule: Q01DX009 (ip), vehicle: saline with Tween-80
[6] = dose: 0.5 mg/kg/injection, schedule: Q01DX010 (ip), vehicle: saline
[7] = dose: 1.0 mg/kg/injection, schedule: Q01DX010 (ip), vehicle: saline
[8] = dose: 2.0 mg/kg/injection, schedule: Q01DX010 (ip), vehicle: saline
[9] = dose: 25.0 mg/kg/injection, schedule: Q01DX009 (ip), vehicle: saline
[10] = dose: 50.0 mg/kg/injection, schedule: Q01DX009 (ip), vehicle: saline
[11] = dose: 40.0 mg/kg/injection, schedule: Q01DX009 (ip), vehicle: saline

O=C(NC(=O)c1c(F)cccc1F)Nc1ccc(Br)cn1
T/C (dose: 25.0 mg/kg/injection, schedule: Q01DX009 (ip), vehicle: saline with Tween-80): 99 % of control | T/C [1]: 92 % of control | T/C [2]: 92 % of control

CC(O)C(=O)Oc1ccccc1 (stereo not given)
T/C [3]: 90 % of control | T/C (dose: 200.0 mg/kg/injection, schedule: Q01DX009 (ip), vehicle: saline): 109 % of control

Cc1ccc2n[nH]nc2c1
T/C [4]: 99 % of control | T/C (dose: 50.0 mg/kg/injection, schedule: Q01DX009 (ip), vehicle: Klucel (hydroxypropylcellulose) (HPC)): 111 % of control | T/C (dose: 100.0 mg/kg/injection, schedule: Q01DX009 (ip), vehicle: Klucel (hydroxypropylcellulose) (HPC)): 107 % of control | T/C (dose: 200.0 mg/kg/injection, schedule: Q01DX009 (ip), vehicle: Klucel (hydroxypropylcellulose) (HPC)): 102 % of control

CC1(C)CCC(C)(C)c2c1ccc(O)c2Sc1c(O)ccc2c1C(C)(C)CCC2(C)C
T/C [1]: 97 % of control | T/C [2]: 97 % of control and 119 % of control | T/C [5]: 102 % of control and 104 % of control | T/C (dose: 400.0 mg/kg/injection, schedule: Q01DX009 (ip), vehicle: saline with Tween-80): 93 % of control

COc1cccc2c1C(=O)c1c(O)c3c(c(O)c1C2=O)C[C@@](O)(C(C)=O)C[C@@H]3OC1CC(N(C)C)C(O)C(C)O1 (stereo not given in full)
T/C (dose: 3.46 mg/kg/injection, schedule: Q04DX003 (ip), vehicle: water): 161 % of control | T/C (dose: 5.76 mg/kg/injection, schedule: Q04DX003 (ip), vehicle: water): 167 % of control | T/C (dose: 9.6 mg/kg/injection, schedule: Q04DX003 (ip), vehicle: water): 184 % of control | T/C (dose: 16.0 mg/kg/injection, schedule: Q04DX003 (ip), vehicle: water): 110 % of control

C[n+]1ccc(Nc2ccc(NC(=O)c3ccc(Nc4cc[n+](C)c5ccc(N)cc45)cc3N)cc2)cc1
T/C [6]: 150 % of control | T/C (dose: 0.88 mg/kg/injection, schedule: Q04DX003 (ip), vehicle: saline with Tween-80): 123 % of control | T/C [7]: 160 % of control | T/C (dose: 1.56 mg/kg/injection, schedule: Q01DX009 (ip), vehicle: Klucel (hydroxypropylcellulose) (HPC)): 194 % of control | T/C (dose: 2.0 mg/kg/injection, schedule: Q01DX009 (ip), vehicle: saline with Tween-80): 150 % of control | T/C [8]: 205 % of control | T/C (dose: 3.0 mg/kg/injection, schedule: Q04DX003 (ip), vehicle: saline with Tween-80): 152 % of control | T/C (dose: 3.12 mg/kg/injection, schedule: Q01DX009 (ip), vehicle: Klucel (hydroxypropylcellulose) (HPC)): 252 % of control and 216 % of control | T/C (dose: 3.12 mg/kg/injection, schedule: Q01DX009 (ip), vehicle: saline): 169 % of control | T/C (dose: 3.6 mg/kg/injection, schedule: Q04DX003 (ip), vehicle: saline with Tween-80): 154 % of control | T/C (dose: 4.0 mg/kg/injection, schedule: Q01DX009 (ip), vehicle: saline with Tween-80): 229 % of control | T/C (dose: 4.0 mg/kg/injection, schedule: Q01DX010 (ip), vehicle: saline): 300 % of control | T/C (dose: 5.56 mg/kg/injection, schedule: Q04DX003 (ip), vehicle: saline): 168 % of control | T/C (dose: 5.6 mg/kg/injection, schedule: Q04DX003 (ip), vehicle: saline with Tween-80): 159 % of control | T/C (dose: 6.25 mg/kg/injection, schedule: Q01DX009 (ip), vehicle: Klucel (hydroxypropylcellulose) (HPC)): 266 % of control and 267 % of control | T/C (dose: 6.25 mg/kg/injection, schedule: Q01DX009 (ip), vehicle: saline): 172 % of control | T/C (dose: 6.25 mg/kg/injection, schedule: Q01DX010 (ip), vehicle: saline): 300 % of control | T/C (dose: 6.25 mg/kg/injection, schedule: Q04DX003 (ip), vehicle: saline): 163 % of control | T/C (dose: 8.0 mg/kg/injection, schedule: Q01DX009 (ip), vehicle: saline with Tween-80): 250 % of control | T/C (dose: 8.3 mg/kg/injection, schedule: Q04DX003 (ip), vehicle: saline with Tween-80): 177 % of control | T/C (dose: 8.33 mg/kg/injection, schedule: Q04DX003 (ip), vehicle: saline): 227 % of control | T/C (dose: 12.5 mg/kg/injection, schedule: Q01DX009 (ip), vehicle: Klucel (hydroxypropylcellulose) (HPC)): 267 % of control and 199 % of control | T/C (dose: 12.5 mg/kg/injection, schedule: Q01DX009 (ip), vehicle: saline): 172 % of control | T/C (dose: 12.5 mg/kg/injection, schedule: Q01DX010 (ip), vehicle: saline): 300 % of control | T/C (dose: 12.5 mg/kg/injection, schedule: Q04DX003 (ip), vehicle: saline with Tween-80): 209 % of control | T/C (dose: 12.5 mg/kg/injection, schedule: Q04DX003 (ip), vehicle: saline): 200 % of control and 218 % of control and 186 % of control | T/C (dose: 16.0 mg/kg/injection, schedule: Q01DX009 (ip), vehicle: saline with Tween-80): 250 % of control | T/C (dose: 18.7 mg/kg/injection, schedule: Q04DX003 (ip), vehicle: saline with Tween-80): 263 % of control | T/C [4]: 116 % of control | T/C [9]: 172 % of control | T/C (dose: 25.0 mg/kg/injection, schedule: Q04DX003 (ip), vehicle: saline): 272 % of control and 254 % of control | T/C (dose: 26.0 mg/kg/injection, schedule: Q04DX003 (ip), vehicle: saline with Tween-80): 272 % of control | T/C (dose: 32.0 mg/kg/injection, schedule: Q01DX009 (ip), vehicle: saline with Tween-80): 112 % of control | T/C (dose: 40.0 mg/kg/injection, schedule: Q04DX003 (ip), vehicle: saline with Tween-80): 272 % of control | T/C [10]: 106 % of control | T/C (dose: 50.0 mg/kg/injection, schedule: Q01DX010 (ip), vehicle: saline): 90 % of control | T/C (dose: 50.0 mg/kg/injection, schedule: Q04DX003 (ip), vehicle: saline): 310 % of control | T/C (dose: 60.0 mg/kg/injection, schedule: Q04DX003 (ip), vehicle: saline with Tween-80): 272 % of control

CC(=O)/C(C1=NCCC1)=C(/C)O
T/C [9]: 109 % of control | T/C [10]: 100 % of control | T/C [3]: 100 % of control

Cc1c(O)ccc(=O)n1O
T/C (dose: 20.0 mg/kg/injection, schedule: Q01DX009 (ip), vehicle: Klucel (hydroxypropylcellulose) (HPC)): 108 % of control | T/C (dose: 20.0 mg/kg/injection, schedule: Q01DX009 (ip), vehicle: saline): 95 % of control | T/C (dose: 40.0 mg/kg/injection, schedule: Q01DX009 (ip), vehicle: Klucel (hydroxypropylcellulose) (HPC)): 121 % of control | T/C (dose: 40.0 mg/kg/injection, schedule: Q01DX009 (ip), vehicle: saline with Tween-80): 117 % of control | T/C [11]: 95 % of control | T/C (dose: 80.0 mg/kg/injection, schedule: Q01DX009 (ip), vehicle: Klucel (hydroxypropylcellulose) (HPC)): 110 % of control | T/C [2]: 116 % of control | T/C (dose: 100.0 mg/kg/injection, schedule: Q04DX003 (ip), vehicle: saline with Tween-80): 104 % of control | T/C (dose: 160.0 mg/kg/injection, schedule: Q01DX009 (ip), vehicle: saline with Tween-80): 122 % of control | T/C (dose: 160.0 mg/kg/injection, schedule: Q01DX009 (ip), vehicle: saline): 100 % of control | T/C [5]: 108 % of control | T/C (dose: 200.0 mg/kg/injection, schedule: Q04DX003 (ip), vehicle: saline with Tween-80): 100 % of control | T/C (dose: 400.0 mg/kg/injection, schedule: Q04DX003 (ip), vehicle: saline with Tween-80): 90 % of control

Cc1n(CC(C)C)c2c([n+]1C)C(=O)c1ccccc1C2=O
T/C (dose: 0.25 mg/kg/injection, schedule: Q01DX010 (ip), vehicle: saline): 90 % of control | T/C [6]: 90 % of control | T/C (dose: 1.0 mg/kg/injection, schedule: Q01DX009 (ip), vehicle: saline): 105 % of control | T/C [7]: 90 % of control | T/C (dose: 2.0 mg/kg/injection, schedule: Q01DX009 (ip), vehicle: saline): 120 % of control | T/C [8]: 120 % of control

C=C1C(=O)OC2/C=C(\C)C3(O)OC(C)(CC(OC(=O)C(C)C)C12)CC3O (stereo not given)
T/C (dose: 10.0 mg/kg/injection, schedule: Q01DX009 (ip), vehicle: saline): 96 % of control | T/C [11]: 96 % of control

O=[N+]([O-])c1ccc(/C=C\S(=O)(=O)OCCCl)cc1
T/C (dose: 3.12 mg/kg/injection, schedule: Q01DX005 (ip), vehicle: Klucel (hydroxypropylcellulose) (HPC)): 115 % of control | T/C (dose: 6.25 mg/kg/injection, schedule: Q01DX005 (ip), vehicle: Klucel (hydroxypropylcellulose) (HPC)): 99 % of control | T/C (dose: 12.5 mg/kg/injection, schedule: Q01DX005 (ip), vehicle: Klucel (hydroxypropylcellulose) (HPC)): 114 % of control

Cc1cnc2ncn(Cc3c[nH]c(=O)[nH]c3=O)c(=O)c2c1
T/C (dose: 12.5 mg/kg/injection, schedule: Q01DX001 (ip), vehicle: saline with Tween-80): 105 % of control and 112 % of control | T/C (dose: 25.0 mg/kg/injection, schedule: Q01DX001 (ip), vehicle: saline with Tween-80): 104 % of control and 109 % of control | T/C (dose: 50.0 mg/kg/injection, schedule: Q01DX001 (ip), vehicle: saline with Tween-80): 102 % of control
